Key:
[1] = tested on: locally advanced or metastatic urothelial cancer; experiment: Phase 2 single-arm, open-label study of enfortumab vedotin 1.25 mg/kg IV on Days 1, 8, 15 of each 28-day cycle: efficacy (confirmed ORR, DOR, PFS per RECIST 1.1 by BICR; OS); type: in vivo, human; details: for ORR point estimates for all subgroups: ORR subgroup analysis
Excerpt: This is a single-arm, open-label, multicenter trial designed to assess the efficacy and safety of enfortumab vedotin as a single agent in locally advanced or metastatic urothelial cancer patients who have previously received systemic therapy with a CPI. For the purpose of this study a CPI is defined as a programmed cell death protein 1 (PD-1) inhibitor or programmed death-ligand 1 (PD-L1) inhibitor (including, but not limited to: atezolizumab, pembrolizumab, durvalumab, avelumab, and nivolumab). Patients must either have received prior treatment with platinum-containing chemotherapy (Cohort 1) or received no prior treatment with platinum-containing or other chemotherapy and are ineligible for treatment with cisplatin at time of enrollment (Cohort 2).
Enfortumab vedotin at a dose of 1.25 mg/kg will be administered as an intravenous (IV) infusion over approximately 30 minutes on Days 1, 8, and 15 of each 28-day cycle. Patients will continue to receive study treatment until disease progression, unacceptable toxicity, investigator decision, consent withdrawal, start of a subsequent anticancer therapy, pregnancy, or study termination by the sponsor. After discontinuation of study treatment, patients will be followed every 8 weeks (1 week) for response assessments, ECOG performance status, and physical exams. After 1 year of on study, the frequency of follow-up exams including response assessments will be reduced to every 12 weeks (+1 week). Patients that have progressed or begun subsequent anticancer therapy will be contacted every 8 weeks (1 week) up to 1 year on study, and every 12 weeks (+1 week) thereafter to obtain information on subsequent anticancer therapy, and survival status until death, study closure, or withdrawal of consent, whichever occurs first. The study will be closed 5 years after enrollment of the last patient, or when no patients remain in long-term follow-up, whichever occurs first. Additionally, the sponsor may terminate the study at any time.
Measures of anticancer activity will be assessed by computed tomography (CT) scans with contrast approximately every 8 weeks (±1 week). After 1 year on study, response assessments will be reduced to every 12 weeks (±1 week). The schedule of response assessments should not be adjusted for dose delays/interruptions or other reasons for changes in the timing of a patient's study activities; timepoints for response assessments should be calculated from Cycle 1 Day 1 during treatment. For patients who cannot receive CT scans with contrast, other protocol-specified imaging methods may be used. Patients must be evaluated using the same imaging method throughout the study for efficacy assessments. CT scans with contrast at the minimum will include the chest, abdomen, and pelvis. Other regions should be scanned if the patient has known or suspected disease in that region. Responses (complete response (CR) or partial response (PR)) will be confirmed with repeat scans 4 weeks (+1 week window) after first documentation of response. The determination of antitumor activity will be based on confirmed objective response assessments as defined by RECIST Version 1.1.
Response and progression will be assessed by an independent review facility (IRF). The investigator will make treatment decisions based on site assessments of scans by RECIST.
The primary endpoint of this study is the confirmed ORR per IRF. The ORR is defined as the proportion of patients with confirmed CR or PR according to RECIST Version 1.1. The ORR per IRF and its exact 2-sided 95% confidence interval (CI) using the Clopper-Pearson method (Clopper et al., Biometrika (1934); 26(4): 404-413) will be calculated.
The primary efficacy endpoint of this study is ORR (confirmed CR or PR per Response Evaluation Criteria in Solid Tumors (RECIST) Version 1.1) as determined by blinded independent central review (BICR) by an independent review facility (IRF). […]

[2] = tested on: patients treated with enfortumab vedotin; experiment: Phase 1 study ASG-22CE-13-2 of enfortumab vedotin: dermatologic and corneal adverse events; type: in vivo, human
Excerpt: In the phase 1 study (Study ASG-22CE-13-2), rash and similar dermatologic AEs were common among patients treated with enfortumab vedotin, and were seen more frequently at the highest dose. Although the exact etiology of dermatologic toxicities associated with enfortumab vedotin is unclear at this time, due to the expression of Nectin-4 in the skin, rash may be an on-target toxicity. The most common dermatological AEs reported in ASG-22CE-13-2 were drug eruption, rash, skin exfoliation, skin pigmentation disorder, and rash maculo-papular. Most occurred during Cycle 1, and some were associated with pruritus. Almost all were mild, with the exception of two events of rash reported as Grade 3 in the 1 mg/kg dose group. […] Mild rash related to enfortumab vedotin should be treated using local supportive care as needed. Topical corticosteroids have been used along with antihistamines for pruritus as needed.
Slit lamp examinations will be conducted on at least the first 60 enrolled patients (from Cohorts 1 and/or 2) on Cycle 2 Day 22 (±1 week) and Cycle 6 Day 22 (±1 week). If corneal AEs are observed in <15% of the first 60 enrolled patients and if the events are generally low grade or asymptomatic, the IDMC may make a recommendation to cease Cycle 2 Day 22 and/or Cycle 6 Day 22 slit lamp exams for the remaining patients if warranted based on review of the cumulative ocular safety data. Based on the results from the Phase 1 study (Study ASG-22CE-13-2), as of the data cut-off date of 14 Nov. 2016, there were 3 patients who reported experiencing corneal adverse events out of 33 patients on […] of enfortumab vedotin. Assuming an event rate of 9% (3/33), with a sample size of 60, the probability of observing >3 events (5%) is 80.0% and the probability of observing <9 events (15%) is 91.2%. If the event rate is higher, the probability of observing <9 events is decreased. For example, if the event rate is 20%, the probability of observing <9 events is decreased to 12.7%. Based on the analysis described above and the review of cumulative ocular safety data, the IDMC recommended that the Cycle 2 Day 22 and Cycle 6 Day 22 slit lamp exams be discontinued in July 2018 and August 2019, respectively.

[3] = Cohort 2 (N = 89), BICR, additional 3 months follow-up
[4] = Cohort 2 (N = 89), BICR, primary analysis
[5] = Cohort 2, BICR, additional 3 months follow-up
[6] = Cohort 2, BICR, primary analysis
[7] = Cohort 2, Kaplan-Meier, additional 3 months follow-up
[8] = Cohort 2, additional 3 months follow-up

Q: Which “Best Overall Response: Complete Response (CR)” value [1, 3] does the source give for “enfortumab vedotin: Nectin-4 directed ADC: fully human anti-nectin-4 IgG1 kappa antibody (AGS-22C3) conjugated to MMAE via protease-cleavable maleimidocaproyl valine-citrulline linker” here?
A: 20 (22.5) n (%)

Q: And the “Best Overall Response: Not Evaluable (NE)” value [1, 3]?
A: 8 (9.0) n (%)

Q: And the “Best Overall Response: Partial Response (PR)” value [1, 3]?
A: 25 (28.1) n (%)

Q: What about the “Best Overall Response: Progressive Disease (PD)” value [1, 3] of the same substance?
A: 19 (10.1) n (%)

Q: What about the “ORR (CR or PR)” value [1, 3] of the same substance?
A: 45 (50.6) n (%)

Q: And the “Best Overall Response: Complete Response (CR)” value [1, 4]?
A: 18 (20.2) n (%)

Q: And the “Best Overall Response: Not Evaluable (NE)” value [1, 4]?
A: 8 (9.0) n (%)

Q: And the “Best Overall Response: Partial Response (PR)” value [1, 4]?
A: 28 (31.5) n (%)

Q: And the “Best Overall Response: Progressive Disease (PD)” value [1, 4]?
A: 8 (9.0) n (%)

Q: And the “ORR (CR or PR)” value [1, 4]?
A: 46 (51.7) n (%)

Q: What about the “Number of responders (confirmed CR or PR)” value ([1]; Cohort 2 (N = 89), additional 3 months follow-up) of the same substance?
A: 45

Q: What about the “95% CI of confirmed ORR” value [1, 5] of the same substance?
A: 39.8-61.3%

Q: And the “CR among treated patients” value [1, 5]?
A: 22%

Q: What about the “confirmed ORR” value [1, 5] of the same substance?
A: 51%

Q: And the “CR (complete response rate)” value [1, 6]?
A: 20.2%

Q: What about the ORR [1, 6] of the same substance?
A: 51.7%

Q: What about the “median DOR” value [1, 6] of the same substance?
A: 10.9 months

Q: What about the “median PFS” value [1, 6] of the same substance?
A: 5.8 months

Q: And the “participants with reduction in tumor measurements” value [1, 6]?
A: 88%

Q: What about the “responders with ongoing response (18 out of 46)” value [1, 6] of the same substance?
A: 39%

Q: What about the “% Responders without PD or death (95% CI)” value [1, 7] of the same substance?
A: 35.8 (14.49, 57.91) %

Q: What about the “% Responders without PD or death at 6 months (95% CI)” value [1, 7] of the same substance?
A: 67.9 (51.11, 79,95) %

Q: What about the “% Responders without PD or death at 12 months (95% CI)” value [1, 7] of the same substance?
A: 53.7 (35.51, 68.85) %

Q: And the “Duration of response, 25th percentile” value [1, 7]?
A: 5.8, − months

Q: What about the “Duration of response, Median (95% CI)” value [1, 7] of the same substance?
A: 13.8 (6.41, −) months

Q: What about the “ORR point estimates for all subgroups” value [1, 8] of the same substance?
A: more than 40%

Q: What about the “ORR point estimates for all subgroups” value ([1]; Cohort 2, primary analysis) of the same substance?
A: more than 40%

Q: What about the “95% CI of median PFS” value [1, 8] of the same substance?
A: 5.0(8.3) months

Q: And the “median DOR” value [1, 8]?
A: 13.8 months

Q: And the “median PFS” value [1, 8]?
A: 6.7 months

Q: What about the “median OS” value ([1]; Cohort 2, additional 3 months follow-up, median follow-up 16.0 months) of the same substance?
A: 16.1 months

Q: What about the ORR ([1]; Cohort 2, patients who did not respond to prior PD-1/PD-L1 inhibitors, additional 3 months follow-up) of the same substance?
A: 46%

Q: What about the ORR ([1]; Cohort 2, patients with liver metastasis, additional 3 months follow-up) of the same substance?
A: 43%

Q: What about the ORR ([1]; Cohort 2, patients with primary tumor sites in the upper tract, additional 3 months follow-up) of the same substance?
A: 58%

Q: And the “median OS” value ([1]; Cohort 2, primary analysis, median follow-up 13.4 months)?
A: 14.7 months

Q: What about the “dermatological AEs that required discontinuation of study drug” value [2] of the same substance?
A: None

Q: What about the “events of rash reported as Grade 3” value ([2]; 1 mg/kg dose group) of the same substance?
A: two

Q: What about the “corneal adverse event rate (3/33)” value ([2]; 1.25 mg/kg) of the same substance?
A: 9%

Q: And the “events of Grade 1 papular rash that required a dose reduction” value ([2]; 1.25 mg/kg)?
A: one

Q: And the “patients who reported experiencing corneal adverse events” value ([2]; out of 33 patients on 1.25 mg/kg, data cut-off 14 Nov. 2016)?
A: 3
